Measurements published in patent US20040241098A1, “Fungicidal mixture containing arylamidine derivatives” (priority 2001, published 2004).

How the values were obtained:
[1] = system: Wheat powdery mildew (Erysiphe graminis); assay: open field trial on wheat, powdery mildew; format: in vivo; conditions: natural contamination, measured 59 days after the application
Procedure: (§1) They are intended to give an illustration of the efficacy of the compositions according to the invention on cereal diseases, in particular the compositions combining compound (A), having the chemical name N-ethyl-N-methyl-N′-[4-(chloro-3-trifluoromethylphénoxy)-2,5-xylyl]formamidine, with fungicidal compounds of the triazole and morpholine type. The trials on cereals were carried out in an open field.
(§2) The objective of these field trials is therefore to test the efficacy of compounds (A) of formula (I), in particular N-ethyl-N-methyl-N′-[4-(chloro-3-trifluoromethylphenoxy)-2,5-xylyl]formamidine, alone at 125 g/ha and combined with 2 fungicides which are commercially available: fluquinconazole (100 g/ha) and fenpropimorph (750 g/ha) representing 2 classes of fungicidal compounds. Powdery mildew, brush rust and Septoria disease mycosphaerella graminicola (Septoria tritici) are the principal diseases treated.
The products tested are therefore
N-ethyl-N-methyl-N′-[4-(chloro-3-trifluorométhylphénoxy)-2,5-xylyl]-formamidine as compound (A) at 125 g/ha as an EC type formulation at 100 g/l, fluquinconazole as compound (B) at 100 g/ha as a formulation at 100 g/l, fenpropimorph as another compound (B) at 750 g/ha at 750 g/l, compound (A) and fluquinconazole combination at 125+100 g/ha as a fresh preparation, compound (A) and fenpropimorph combination at 125+750 g/ha, also as a fresh preparation, epoxyconazole+kresoxim-methyl at 125+125 g/ha on the 3 diseases, quinoxyfen at 150 g/ha on powdery mildew.
(§3) Each trial comprises 3 repeats and untreated control plots are included in the experimental design in order to measure the severity of the diseases.
All the trials are conducted under natural contamination conditions. The equipment for application is a constant compressed air pressure back sprayer. The spray nozzles have slits. […]

[2] = system: powdery mildew, brown rust and Septoria disease; assay: open field trials on cereals, conclusion over the 3 diseases; format: in vivo
Procedure: as §1, §2, §3
All the trials are conducted under natural contamination conditions. The equipment for application is a constant compressed air pressure back sprayer. The spray nozzles have slits.
The efficacy results are obtained from controls carried out in the field: […]

Row | SMILES | efficacy / persistence of activity on wheat powdery mildew [1] | effect on persistence of activity of compounds (B) ([2]; 3 major cereal diseases: powdery mildew, brown rust and Septoria disease) | persistence of activity ([2]; compound alone)
1 | O=c1c2cc(F)ccc2nc(-n2cncn2)n1-c1ccc(Cl)cc1Cl [Fluquinconazole, fluquinconazole] | no longer have an activity |  | 
2 | Fc1ccc(Oc2ccnc3cc(Cl)cc(Cl)c23)cc1 [Quinoxyfen, quinoxyfen] | low but significant efficacy |  | 
3 | CCN(C)C=Nc1cc(C)c(Oc2ccc(Cl)c(C(F)(F)F)c2)cc1C [compound (A), N-ethyl-N-methyl-N′-[4-(chloro-3-trifluoromethylphénoxy)-2,5-xylyl]formamidine] |  | significantly improve the persistence of activity of compounds (B) fluquinconazole and fenpropimorph | not very persistent by itself
4 | CC(Cc1ccc(C(C)(C)C)cc1)CN1C[C@@H](C)O[C@@H](C)C1 (some centres unmarked) [fenpropimorph] | no longer have an activity |  | 
